The RepoRT retention time repository (doi:10.1038/s41586-021-03707-9)

What was measured:
[1] = RP, Waters ACQUITY UPLC HSS C18, 100 × 2.1 mm, 1.7 µm, 40 °C, 0.35 mL/min, estimated dead time 0.63 min; A: water + 0.1% formic acid; B: methanol + 0.1% formic acid; gradient (min/%B) 0/0.5 4/70 4.5/98 5.4/98; conditions: stereoisomer not certain
[2] = Waters ACQUITY UPLC BEH C18, 100 × 2.1 mm, 1.7 µm, 40 °C, 0.28 mL/min, estimated dead time 0.63 min; A: water + 6.5 mM ammonium hydroxide; B: methanol + 6.5 mM ammonium hydroxide; gradient (min/%B) 0/0.5 4/70 4.5/98 5.4/98; conditions: stereoisomer not certain

Row | Compound | LC retention time [1] [min] | LC retention time [2] [min]
1 | NC(=O)c1cccnc1 | 1.4 | 2.14
2 | CNCCc1c[nH]c2ccccc12 | 2.87 | 3.84
3 | CC1=CC(=O)NS(=O)(=O)O1 | 2.12 | 1.78
4 | NC(=O)c1ccccc1O | 3.56 | 3.12
5 | Cn1c(=O)c2[nH]c(=O)[nH]c2n(C)c1=O | 2.47 | 1.92
6 | OCc1ccccc1OC1OC(CO)C(O)C(O)C1O (configuration not stated) | 2.82 | 2.89
7 | COc1cc(CCN)ccc1O | 1.99 | 2.57
8 | O=C(O)c1ccc(=O)[nH]c1 | 1.96 | 0.819
9 | COc1cc(C(=O)O)ccc1O | 3.33 | 0.869
10 | Nc1ncnc2c1ncn2C1OC2COP(=O)(O)OC2C1O (configuration not stated) | 1.95 | 2.32
11 | COc1cc(O)cc(OC)c1 | 4.13 | 4.22
12 | Nc1nc2c(ncn2C2OC3COP(=O)(O)OC3C2O)c(=O)[nH]1 (configuration not stated) | 1.99 | 1.87
13 | CCC(C)C(=O)NCC(=O)O (configuration not stated) | 2.97 | 2.17
14 | COc1ccc(O)c(C(=O)O)c1 | 4.48 | 2.84
15 | CSCCC(NC(C)=O)C(=O)O (configuration not stated) | 2.98 | 2.07
16 | CNCCc1ccc(O)cc1 | 1.79 | 2.43
17 | OCCc1c[nH]c2ccccc12 | 4.22 | 4.36
18 | Cc1cc2nc[nH]c2cc1C | 3.34 | 4.93
19 | Cn1c(=O)[nH]c2[nH]c(=O)n(C)c2c1=O | 2.78 | 1.81
20 | CCCCCCSCC(NC(=O)CCC(N)C(=O)O)C(=O)NCC(=O)O (configuration not stated) | 4.88 | 4.57
21 | OC1C2COC(O2)C(O)C1O (configuration not stated) | 0.85 | 0.853
22 | Nc1nc2nccnc2c(=O)[nH]1 | 1.73 | 1.57
23 | NC(Cc1ccc(O)c([N+](=O)[O-])c1)C(=O)O (configuration not stated) | 2.44 | 1.1
24 | Cc1ccc(S(=O)(=O)O)cc1 | 3 | 2.67

Row | Compound | LC retention time [1] [min] | LC retention time [2] [min]
25 | CCOC(=O)c1ccc(N)cc1 | 4.4 | 4.61
26 | O=C(O)c1cccc(O)c1 | 3.47 | 0.886
27 | O=C(O)c1ccc(O)c(O)c1O | 2.59 | 0.832
28 | CCCCNC(=O)NS(=O)(=O)c1ccc(C)cc1 | 5.11 | 4.37
29 | NCCCCC(=O)O | 0.909 | 0.812
30 | COc1ccc2[nH]cc(CCNC(C)=O)c2c1 | 4.05 | 4.19
31 | Cn1c(=O)c2[nH]cnc2n(C)c1=O | 2.9 | 2.75
32 | Nc1ncnc2c1ncn2C1OC(CO)C2OP(=O)(O)OC21 (configuration not stated) | 1.68 | 2.11
33 | C[N+](C)(C)CCCC(=O)[O-] | 0.814 | 0.803
34 | CC(=O)NC(C)C(=O)O (configuration not stated) | 1.77 | 0.918
35 | Nc1ccccc1S(=O)(=O)O | 1.79 | 1.68
36 | CSCC1OC(n2cnc3c(N)ncnc32)C(O)C1O (configuration not stated) | 2.85 | 3.51
37 | NC(N)=NCC(=O)O | 0.759 | 0.801
38 | O=C(O)c1ccc(CO)o1 | 2.36 | 0.87
39 | C[n+]1cccc(C(=O)[O-])c1 | 0.822 | 0.848
40 | O=C(O)c1cc(=O)c2ccccc2[nH]1 | 3.18 | 2.57
41 | O=C1CC(C(=O)O)NC(=O)N1 (configuration not stated) | 0.995 | 0.767
42 | O=C(O)c1ccnc2ccccc12 | 1.91 | 2.09
43 | NC(=O)C(N)Cc1c[nH]c2ccccc12 (configuration not stated) | 2.44 | 3.46
44 | CC1(C)SC2C(NC(=O)C(N)c3ccccc3)C(=O)N2C1C(=O)O (configuration not stated) | 3.45 | 3.72
45 | O=C(O)CNC(=O)c1cccnc1 | 1.74 | 1.67
46 | c1ncc2[nH]cnc2n1 | 1.69 | 1.85
47 | Nc1nc2ncc(CNc3ccc(C(=O)NC(CCC(=O)O)C(=O)O)cc3)nc2c(=O)[nH]1 (configuration not stated) | 3.01 | 0.847
48 | CC=C(C)C(=O)NCC(=O)O | 2.9 | 2.16

Row | Compound | LC retention time [1] [min] | LC retention time [2] [min]
49 | Nc1nc2c(ncn2C2OC(CO)C(O)C2O)c(=O)[nH]1 (configuration not stated) | 1.92 | 1.98
50 | O=C(O)CNC(=O)Cc1ccccc1 | 3.49 | 2.69
51 | O=C(O)c1ccoc1 | 3.35 | 0.886
52 | O=C(O)c1cc(=O)c2cccc(O)c2[nH]1 | 3.04 | 1.67
53 | CN(CC(=O)O)C(=N)N | 0.82 | 0.86
54 | NC(=O)C1CCCN1C(=O)C(Cc1cnc[nH]1)NC(=O)C1CCC(=O)N1 (configuration not stated) | 1.76 | 2.36
55 | O=c1[nH]c(=O)c2ncn(C3OC(CO)C(O)C3O)c2[nH]1 (configuration not stated) | 2.09 | 1.11
56 | CC(=O)NCCc1c[nH]c2ccc(O)cc12 | 3.01 | 3.09
57 | O=C(O)c1cc(=O)[nH]c(=O)[nH]1 | 1.01 | 0.811
58 | O=C(O)Cc1c[nH]c2ccc(O)cc12 | 2.92 | 1.72
59 | Cc1ccc(O)c(O)c1 | 3.49 | 3.87
60 | [2H]c1c([2H])c([2H])c(C(=O)NCC(=O)O)c([2H])c1[2H] | 3.22 | 2.42
61 | CC(=O)NC(CC(N)=O)C(=O)O (configuration not stated) | 0.981 | 0.76
62 | O=C1OC(CO)C(O)C(O)C1O (configuration not stated) | 0.795 | 0.906
63 | [2H]c1[nH]c2c([2H])c([2H])c([2H])c([2H])c2c1CC(=O)O | 4.22 | 2.49
64 | NC(C(=O)O)c1ccc(O)cc1 (configuration not stated) | 0.808 | 0.818
65 | O=C(O)CCCc1c[nH]c2ccccc12 | 4.92 | 3.66
66 | CC(=O)NCC(=O)O | 1.13 | 0.78
67 | O=C(O)Cc1ccccc1 | 2.87 | 1.75
68 | CC1CNC(=O)NC1=O (configuration not stated) | 1.87 | 1.94
69 | O=C(O)Cc1c[nH]c2ccccc12 | 4.21 | 2.51
70 | CC(C)NCC(O)COc1ccc(CC(N)=O)cc1 (configuration not stated) | 2.35 | 3.57
71 | Cc1ncc(CO)c(CO)c1O | 1.54 | 1.94
72 | O=c1[nH]cnc2c1ncn2C1OC(CO)C(O)C1O (configuration not stated) | 1.92 | 1.9

Row | Compound | LC retention time [1] [min] | LC retention time [2] [min]
73 | NCCCCC(NC(CCc1ccccc1)C(=O)O)C(=O)N1CCCC1C(=O)O (configuration not stated) | 3.22 | 2.96
74 | CCC1(C)CC(=O)NC1=O (configuration not stated) | 3.39 | 3.44
75 | CC(C)(C)NCC(O)c1ccc(O)c(CO)c1 (configuration not stated) | 2.34 | 3.38
76 | O=C(O)c1cccnc1 | 1.27 | 1.25
77 | O=C(O)CCCCCCC(=O)NCC(=O)O | 3.35 | 0.865
78 | OCC1OC(OCC2OC(O)C(O)C(O)C2O)C(O)C(O)C1O (configuration not stated) | 0.804 | 0.831
79 | OCC1OC(OC2C(CO)OC(O)(CO)C2O)C(O)C(O)C1O (configuration not stated) | 0.799 | 0.859
80 | CN(C)CCc1ccc(O)cc1 | 1.82 | 3.89
81 | COc1ccc2[nH]cc(CC(=O)O)c2c1 | 4.09 | 2.72
82 | NC(=O)c1ncn(C2OC(CO)C(O)C2O)c1N (configuration not stated) | 1.58 | 1.77
83 | CC(C(=O)O)c1cccc(C(=O)c2ccccc2)c1 (configuration not stated) | 5.37 | 4.61
84 | Oc1ccc(O)cc1 | 2.83 | 1.95
85 | CCCCCCCC(=O)OC(CC(=O)[O-])C[N+](C)(C)C (configuration not stated) | 4.65 | 5.1
86 | Nc1c(O)cccc1C(=O)O | 2.57 | 0.924
87 | NC(=O)NCCCCC(N)C(=O)O (configuration not stated) | 0.857 | 0.853
88 | CN1CC(=O)NC1=N | 0.77 | 0.861
89 | CC(=O)NC1C(O)OC(CO)C(O)C1OC(C)C(=O)O (configuration not stated) | 1.91 | 0.854
90 | O=C(O)c1ccc2ccccc2n1 | 3.21 | 3.07
91 | CNC(=O)c1cccnc1 | 1.82 | 2.54
92 | CC(C)(N)C(=O)O | 0.821 | 0.806
93 | Nc1cc(O)cc(C(=O)O)c1 | 1.32 | 0.812
94 | CCC(NC(=O)CCC(N)C(=O)O)C(=O)NCC(=O)O (configuration not stated) | 1.58 | 0.928
95 | CC(=O)NC(CCCCN)C(=O)O (configuration not stated) | 0.903 | 0.916
96 | Cc1ncc(CO)c(C=O)c1O | 0.85 | 1.77
